Data as given in patent US12084485B2 (Intarcia Therapeutics, Inc., priority 2020, dated 2024).

Key:
[1] = Acute food intake inhibition in Long Evans rats after bolus SC dosing (BioDAQ); format: in vivo, rat; conditions: 30 mcg SC bolus
[2] = Stability in DMSO or DI water at 37° C. (purity by LC/MS and HPLC); format: physicochemical
[3] = Solubility in saline or DI water at room temperature (visual inspection); format: physicochemical

Row | solubility ([3]; Solubility (mg/mL) in DI water) [mg/mL] | solubility ([3]; Solubility (mg/mL) in saline) [mg/mL] | SMILES | also measured
1 | > 78 | > 75 | CC[C@H](C)[C@H](NC(=O)[C@H](Cc1ccccc1)NC(=O)[C@H](CCC(=O)O)NC(=O)[C@H](CCCNC(=N)N)NC(=O)[C@H](C)NC(=O)[C@H](C)NC(=O)[C@H](CCC(=O)O)NC(=O)[C@H](CCCCNC(=O)CC[C@H](NC(=O)CC[C@H](NC(=O)COCCOCCNC(=O)CC[C@H](NC(=O)CC[C@H](NC(=O)CCCCCCCCCCCCCCCCCCC(=O)O)C(=O)O)C(=O)O)C(=O)O)C(=O)O)NC(=O)[C@H](CCC(=O)O)NC(=O)[C@H](Cc1ccc(O)cc1)NC(=O)[C@H](CCC(N)=O)NC(=O)[C@H](CCC(=O)O)NC(=O)[C@H](CO)NC(=O)[C@@H](NC(=O)[C@H](CC(=O)O)NC(=O)[C@H](CO)NC(=O)[C@@H](NC(=O)[C@H](Cc1ccccc1)NC(=O)[C@@H](NC(=O)CNC(=O)[C@H](CCC(=O)O)NC(=O)C(C)(C)NC(=O)[C@@H](N)Cc1c[nH]cn1)[C@@H](C)O)[C@@H](C)O)[C@@H](C)CC)C(=O)N[C@@H](CCC(=O)O)C(=O)N[C@@H](Cc1c[nH]c2ccccc12)C(=O)N[C@@H](CC(C)C)C(=O)N[C@@H](CCCCN)C(=O)N[C@@H](CC(N)=O)C(=O)NCC(=O)NCC(=O)N1CCC[C@H]1C(=O)N[C@@H](CO)C(=O)N[C@@H](CO)C(=O)NCC(=O)N[C@@H](C)C(=O)N1CCC[C@H]1C(=O)N1CCC[C@H]1C(=O)N1CCC[C@H]1C(=O)N[C@@H](CO)C(N)=O [Compound A80] | –
2 | > 128 | > 133 | CC[C@H](C)[C@H](NC(=O)[C@H](Cc1ccccc1)NC(=O)[C@H](CCC(N)=O)NC(=O)[C@H](CCCNC(=N)N)NC(=O)[C@@H](NC(=O)[C@H](C)NC(=O)[C@H](CCC(=O)O)NC(=O)[C@H](CCCCNC(=O)CC[C@H](NC(=O)CC[C@H](NC(=O)COCCOCCNC(=O)CCCCCCCCCCCCCCCCCCC(=O)O)C(=O)O)C(=O)O)NC(=O)[C@H](CCC(=O)O)NC(=O)[C@H](Cc1ccc(O)cc1)NC(=O)[C@H](CCC(N)=O)NC(=O)[C@H](CCCCN)NC(=O)[C@H](CO)NC(=O)[C@H](CC(C)C)NC(=O)[C@H](CC(=O)O)NC(=O)[C@H](CO)NC(=O)[C@@H](NC(=O)[C@H](Cc1ccccc1)NC(=O)[C@@H](NC(=O)CNC(=O)[C@H](CCC(=O)O)NC(=O)C(C)(C)NC(=O)[C@@H](N)Cc1c[nH]cn1)[C@@H](C)O)[C@@H](C)O)C(C)C)C(=O)N[C@@H](CO)C(=O)N[C@@H](Cc1c[nH]c2ccccc12)C(=O)N[C@@H](CC(C)C)C(=O)N[C@@H](CCCCN)C(=O)N[C@@H](CC(N)=O)C(=O)NCC(=O)NCC(=O)N1CCC[C@H]1C(=O)N[C@@H](CO)C(=O)N[C@@H](CO)C(=O)NCC(=O)N[C@@H](C)C(=O)N1CCC[C@H]1C(=O)N1CCC[C@H]1C(=O)N1CCC[C@H]1C(=O)N[C@@H](CO)C(N)=O [Compound A96] | –

The remaining lines, values behind:

Row | SMILES | solubility ([3]; Solubility (mg/mL) in DI water) [mg/mL] | solubility ([3]; Solubility (mg/mL) in saline) [mg/mL] | also measured
3 | CC[C@H](C)[C@H](NC(=O)[C@H](Cc1ccccc1)NC(=O)[C@H](CCCCN)NC(=O)[C@H](CCCNC(=N)N)NC(=O)[C@H](C)NC(=O)[C@H](C)NC(=O)[C@H](CCC(=O)O)NC(=O)[C@H](CCCCNC(=O)CC[C@H](NC(=O)CC[C@H](NC(=O)COCCOCCNC(=O)CCCCCCCCCCCCCCCCCCC(=O)O)C(=O)O)C(=O)O)NC(=O)[C@H](CCC(=O)O)NC(=O)[C@H](Cc1ccc(O)cc1)NC(=O)[C@H](CCC(N)=O)NC(=O)[C@H](CCCCN)NC(=O)[C@H](CO)NC(=O)[C@H](CC(C)C)NC(=O)[C@H](CC(=O)O)NC(=O)[C@H](CO)NC(=O)[C@@H](NC(=O)[C@H](Cc1ccccc1)NC(=O)[C@@H](NC(=O)CNC(=O)[C@H](CCC(=O)O)NC(=O)C(C)(C)NC(=O)[C@@H](N)Cc1c[nH]cn1)[C@@H](C)O)[C@@H](C)O)C(=O)N[C@@H](CO)C(=O)N[C@@H](Cc1c[nH]c2ccccc12)C(=O)N[C@@H](CC(C)C)C(=O)N[C@@H](CCCCN)C(=O)N[C@@H](CC(N)=O)C(=O)NCC(=O)NCC(=O)N1CCC[C@H]1C(=O)N[C@@H](Cc1c[nH]cn1)C(=O)N[C@@H](CO)C(=O)NCC(=O)N[C@@H](C)C(=O)N1CCC[C@H]1C(=O)N1CCC[C@H]1C(=O)N1CCC[C@H]1C(=O)N[C@@H](CO)C(N)=O [Compound A62] | – | – | % Food Intake Inhibition from Vehicle, 0-24 hr ([1]; 0-24 hr): −37.1%; % Food Intake Inhibition from Vehicle, 25-48 hr ([1]; 25-48 hr): −48.8%; % Food Intake Inhibition from Vehicle, 49-72 hr ([1]; 49-72 hr): −47.4%; % Food Intake Inhibition from Vehicle, 73-96 hr ([1]; 73-96 hr): 19.5%
4 | CC[C@H](C)[C@H](NC(=O)[C@H](Cc1ccccc1)NC(=O)[C@H](CCC(=O)O)NC(=O)[C@H](CCCNC(=N)N)NC(=O)[C@H](C)NC(=O)[C@H](C)NC(=O)[C@H](CCC(=O)O)NC(=O)[C@H](CCNC(=O)CC[C@H](NC(=O)CC[C@H](NC(=O)COCCOCCNC(=O)CC[C@H](NC(=O)CC[C@H](NC(=O)CCCCCCCCCCCCCCCCCCC(=O)O)C(=O)O)C(=O)O)C(=O)O)C(=O)O)NC(=O)[C@H](CCC(=O)O)NC(=O)[C@H](Cc1ccc(O)cc1)NC(=O)[C@H](CCC(N)=O)NC(=O)[C@H](CCCCN)NC(=O)[C@H](CO)NC(=O)[C@H](CC(C)C)NC(=O)[C@H](CC(=O)O)NC(=O)[C@H](CO)NC(=O)[C@@H](NC(=O)[C@H](Cc1ccccc1)NC(=O)[C@@H](NC(=O)CNC(=O)[C@H](CCC(=O)O)NC(=O)C(C)(C)NC(=O)[C@@H](N)Cc1c[nH]cn1)[C@@H](C)O)[C@@H](C)O)C(=O)N[C@@H](CCC(=O)O)C(=O)N[C@@H](Cc1c[nH]c2ccccc12)C(=O)N[C@@H](CC(C)C)C(=O)N[C@@H](CCCCN)C(=O)N[C@@H](CC(N)=O)C(=O)NCC(=O)NCC(=O)N1CCC[C@H]1C(=O)N[C@@H](CO)C(=O)N[C@@H](CO)C(=O)NCC(=O)N[C@@H](C)C(=O)N1CCC[C@H]1C(=O)N1CCC[C@H]1C(=O)N1CCC[C@H]1C(=O)N[C@@H](CO)C(N)=O [Compound A72] | – | – | Stability @ 37° C. (% purity) Day 14 [2]: 98.7%; Stability @ RT (% purity) Day 28 [2]: 95.1%
5 | CC[C@H](C)[C@H](NC(=O)[C@H](Cc1ccccc1)NC(=O)[C@H](CCC(=O)O)NC(=O)[C@H](CCCNC(=N)N)NC(=O)[C@@H](NC(=O)[C@H](C)NC(=O)[C@H](CCC(=O)O)NC(=O)[C@H](CCCCNC(=O)CC[C@H](NC(=O)CC[C@H](NC(=O)COCCOCCNC(=O)CCCCCCCCCCCCCCCCCCC(=O)O)C(=O)O)C(=O)O)NC(=O)[C@H](CCC(=O)O)NC(=O)[C@H](Cc1ccc(O)cc1)NC(=O)[C@H](CCC(N)=O)NC(=O)[C@H](CCCCN)NC(=O)[C@H](CO)NC(=O)[C@H](CC(C)C)NC(=O)[C@H](CC(=O)O)NC(=O)[C@H](CO)NC(=O)[C@@H](NC(=O)[C@H](Cc1ccccc1)NC(=O)[C@@H](NC(=O)CNC(=O)[C@H](CCC(=O)O)NC(=O)C(C)(C)NC(=O)[C@@H](N)Cc1c[nH]cn1)[C@@H](C)O)[C@@H](C)O)C(C)C)C(=O)N[C@@H](CCC(=O)O)C(=O)N[C@@H](Cc1c[nH]c2ccccc12)C(=O)N[C@@H](CC(C)C)C(=O)N[C@@H](CCCCN)C(=O)N[C@@H](CC(N)=O)C(=O)NCC(=O)NCC(=O)N1CCC[C@H]1C(=O)N[C@@H](Cc1c[nH]cn1)C(=O)N[C@@H](CO)C(=O)NCC(=O)N[C@@H](C)C(=O)N1CCC[C@H]1C(=O)N1CCC[C@H]1C(=O)N1CCC[C@H]1C(=O)N[C@@H](CO)C(N)=O [Compound A152] | > 109 | > 101 | –
6 | CC[C@H](C)[C@H](NC(=O)[C@H](Cc1ccccc1)NC(=O)[C@H](CCC(=O)O)NC(=O)[C@H](CCCNC(=N)N)NC(=O)[C@H](C)NC(=O)[C@H](C)NC(=O)[C@H](CCC(=O)O)NC(=O)[C@H](CCCCNC(=O)CC[C@H](NC(=O)CC[C@H](NC(=O)COCCOCCNC(=O)CC[C@H](NC(=O)CC[C@H](NC(=O)CCCCCCCCCCCCCCCCCCC(=O)O)C(=O)O)C(=O)O)C(=O)O)C(=O)O)NC(=O)[C@H](CCC(=O)O)NC(=O)[C@H](Cc1ccc(O)cc1)NC(=O)[C@H](CCC(N)=O)NC(=O)[C@H](CCCCN)NC(=O)[C@H](CO)NC(=O)[C@H](CC(C)C)NC(=O)[C@H](CC(=O)O)NC(=O)[C@H](CO)NC(=O)[C@@H](NC(=O)[C@H](Cc1ccccc1)NC(=O)[C@@H](NC(=O)CNC(=O)[C@H](CCC(=O)O)NC(=O)C(C)(C)NC(=O)[C@@H](N)Cc1c[nH]cn1)[C@@H](C)O)[C@@H](C)O)C(=O)N[C@@H](CCC(=O)O)C(=O)N[C@@H](Cc1c[nH]c2ccccc12)C(=O)N[C@@H](CC(C)C)C(=O)N[C@@H](CCCCN)C(=O)N[C@@H](CC(N)=O)C(=O)NCC(=O)NCC(=O)N1CCC[C@H]1C(=O)N[C@@H](Cc1c[nH]cn1)C(=O)N[C@@H](CO)C(=O)NCC(=O)N[C@@H](C)C(=O)N1CCC[C@H]1C(=O)N1CCC[C@H]1C(=O)N1CCC[C@H]1C(=O)N[C@@H](CO)C(N)=O [Compound A154] | > 70 | > 106 | –
